System: intraocular pressure (IOP)
Assay: Intraocular pressure in New Zealand White rabbits, topical dosing four times daily
Assay type: in vivo
Conditions: for Intraocular Pressure, MEAN: A.M. readings
Description: On Days 1-31, animals received daily topical doses of the appropriate test article into the right eye. Animals were dosed four times per day, with doses administered 2 hours apart. Doses were administered using a calibrated 50-μL pipette. The eyelids were held close for 10 seconds immediately following dosing. The time of each dose administration was recorded.
Intraocular pressure (“IOP”) was determined for both eyes of each animal on Days 3, 5, 10, 12, 16, 18, 22, 24, 26, 30, and 32. IOP was evaluated with a Medtronic Solan, Model 30 classic pneumatonometer. Proparacaine hydrochloride 0.5% (1 drop) was delivered to each eye prior to IOP measurement. IOP was measured on Monday. Wednesday, and Friday of each week. A two-point diurnal curve was established: IOP was recorded at 8 a.m. and 12 p.m. on Day 3, and at 8 a.m. and 2 p.m. on later days, with a ±1 hour range for each of these times. The time of the measurements was recorded.
Descriptive statistics were prepared for IOP data of each treatment group (left and right eyes separately) at each measurement interval. The statistics included the number of observations (“N”) mean, standard deviation (“STD”), and standard error (“SEM”). Statistical analyses were conducted on IOP results using Statistical Analysis Systems (SAS Institute. Inc., Cary, N.C. V8.0). Parameters were evaluated using analysis of variance/GLM Procedure followed by Tukey's Standardized Range Test (Tukey, 1985) for post hoc comparisons of group means. The level of significance was set at a probability of p<0.05 for all statistical procedures. Group IOP means were compared at each interval, with left and right eyes compared separately.

Q: For `Cc1ccc2c(NC[C@](O)(CC(C)(C)c3cc(F)cc4c3OCC4)C(F)(F)F)cccc2n1` [BOL-303242-X, mapracorat], which “Differences in mean IOP versus BSS group” value (BOL-303242-X groups B-D (10, 5, 1 mg/g), p<0.05) is on record?
A: No statistically significant (p<0.05) differences

Q: What about the “Effect of daily dosing on IOP compared to daily dosing with dexamethasone” value (BOL-303242-X suspensions 0.05, 0.25, 0.5 mg/dose, four times daily up to 31 days) of the same compound?
A: did not increase IOP

Q: And the “Course of mean IOP after treatment began” value (left and right eyes, dexamethasone 0.1% (Group A), BOL-303242-X 10, 5, 1 mg/g (Groups B-D), four times daily)?
A: not seen

Q: And the “Intraocular Pressure, MEAN” value (treated right eyes, Day 3, 1 mg/g (Group D))?
A: 23.0 mmHg

Q: What about the “Intraocular Pressure, MEAN” value (treated right eyes, Day 3, 5 mg/g (Group C)) of the same compound?
A: 23.7 mmHg

Q: What about the “Intraocular Pressure, MEAN” value (treated right eyes, Day 3, 10 mg/g (Group B)) of the same compound?
A: 22.7 mmHg

Q: And the “Intraocular Pressure, MEAN” value (treated right eyes, Day 5, 1 mg/g (Group D))?
A: 24.7 mmHg

Q: And the “Intraocular Pressure, MEAN” value (treated right eyes, Day 5, 5 mg/g (Group C))?
A: 24.7 mmHg

Q: And the “Intraocular Pressure, MEAN” value (treated right eyes, Day 5, 10 mg/g (Group B))?
A: 23.8 mmHg

Q: What about the “Intraocular Pressure, MEAN” value (treated right eyes, Day 10, 1 mg/g (Group D)) of the same compound?
A: 24.8 mmHg

Q: What about the “Intraocular Pressure, MEAN” value (treated right eyes, Day 10, 5 mg/g (Group C)) of the same compound?
A: 25.2 mmHg

Q: What about the “Intraocular Pressure, MEAN” value (treated right eyes, Day 10, 10 mg/g (Group B)) of the same compound?
A: 24.5 mmHg

Q: What about the “Intraocular Pressure, MEAN” value (treated right eyes, Day 12, 1 mg/g (Group D)) of the same compound?
A: 23.4 mmHg

Q: And the “Intraocular Pressure, MEAN” value (treated right eyes, Day 12, 5 mg/g (Group C))?
A: 25.0 mmHg

Q: What about the “Intraocular Pressure, MEAN” value (treated right eyes, Day 12, 10 mg/g (Group B)) of the same compound?
A: 23.9 mmHg

Q: What about the “Intraocular Pressure, MEAN” value (treated right eyes, Day 16, 1 mg/g (Group D)) of the same compound?
A: 22.1 mmHg

Q: What about the “Intraocular Pressure, MEAN” value (treated right eyes, Day 16, 5 mg/g (Group C)) of the same compound?
A: 24.3 mmHg

Q: What about the “Intraocular Pressure, MEAN” value (treated right eyes, Day 16, 10 mg/g (Group B)) of the same compound?
A: 23.4 mmHg

Q: And the “Intraocular Pressure, MEAN” value (treated right eyes, Day 18, 1 mg/g (Group D))?
A: 23.7 mmHg

Q: And the “Intraocular Pressure, MEAN” value (treated right eyes, Day 18, 5 mg/g (Group C))?
A: 23.9 mmHg

Q: What about the “Intraocular Pressure, MEAN” value (treated right eyes, Day 18, 10 mg/g (Group B)) of the same compound?
A: 22.3 mmHg

Q: What about the “Intraocular Pressure, MEAN” value (treated right eyes, Day 22, 1 mg/g (Group D)) of the same compound?
A: 23.2 mmHg

Q: And the “Intraocular Pressure, MEAN” value (treated right eyes, Day 22, 5 mg/g (Group C))?
A: 22.4 mmHg

Q: What about the “Intraocular Pressure, MEAN” value (treated right eyes, Day 22, 10 mg/g (Group B)) of the same compound?
A: 22.4 mmHg

Q: And the “Intraocular Pressure, MEAN” value (treated right eyes, Day 24, 1 mg/g (Group D))?
A: 22.1 mmHg

Q: And the “Intraocular Pressure, MEAN” value (treated right eyes, Day 24, 5 mg/g (Group C))?
A: 23.8 mmHg

Q: What about the “Intraocular Pressure, MEAN” value (treated right eyes, Day 24, 10 mg/g (Group B)) of the same compound?
A: 21.2 mmHg

Q: What about the “Intraocular Pressure, MEAN” value (treated right eyes, Day 26, 1 mg/g (Group D)) of the same compound?
A: 23.1 mmHg

Q: What about the “Intraocular Pressure, MEAN” value (treated right eyes, Day 26, 5 mg/g (Group C)) of the same compound?
A: 22.1 mmHg

Q: And the “Intraocular Pressure, MEAN” value (treated right eyes, Day 26, 10 mg/g (Group B))?
A: 21.8 mmHg

Q: What about the “Intraocular Pressure, MEAN” value (treated right eyes, Day 30, 1 mg/g (Group D)) of the same compound?
A: 24.2 mmHg

Q: What about the “Intraocular Pressure, MEAN” value (treated right eyes, Day 30, 5 mg/g (Group C)) of the same compound?
A: 22.9 mmHg

Q: What about the “Intraocular Pressure, MEAN” value (treated right eyes, Day 30, 10 mg/g (Group B)) of the same compound?
A: 22.7 mmHg

Q: And the “Intraocular Pressure, MEAN” value (treated right eyes, Day 32, 1 mg/g (Group D))?
A: 24.9 mmHg

Q: What about the “Intraocular Pressure, MEAN” value (treated right eyes, Day 32, 5 mg/g (Group C)) of the same compound?
A: 23.4 mmHg

Q: And the “Intraocular Pressure, MEAN” value (treated right eyes, Day 32, 10 mg/g (Group B))?
A: 23.9 mmHg

Q: And the “Intraocular Pressure, MEAN” value (treated right eyes, Pre-Study, 1 mg/g (Group D))?
A: 24.4 mmHg

Q: What about the “Intraocular Pressure, MEAN” value (treated right eyes, Pre-Study, 5 mg/g (Group C)) of the same compound?
A: 24.8 mmHg

Q: And the “Intraocular Pressure, MEAN” value (treated right eyes, Pre-Study, 10 mg/g (Group B))?
A: 24.0 mmHg

Q: What about the “Intraocular Pressure, MEAN” value (untreated left eyes, Day 3, 1 mg/g (Group D)) of the same compound?
A: 23.5 mmHg

Q: And the “Intraocular Pressure, MEAN” value (untreated left eyes, Day 3, 5 mg/g (Group C))?
A: 23.8 mmHg

Q: And the “Intraocular Pressure, MEAN” value (untreated left eyes, Day 3, 10 mg/g (Group B))?
A: 23.3 mmHg

Q: What about the “Intraocular Pressure, MEAN” value (untreated left eyes, Day 5, 1 mg/g (Group D)) of the same compound?
A: 24.4 mmHg

Q: What about the “Intraocular Pressure, MEAN” value (untreated left eyes, Day 5, 5 mg/g (Group C)) of the same compound?
A: 24.4 mmHg

Q: And the “Intraocular Pressure, MEAN” value (untreated left eyes, Day 5, 10 mg/g (Group B))?
A: 23.4 mmHg

Q: What about the “Intraocular Pressure, MEAN” value (untreated left eyes, Day 10, 1 mg/g (Group D)) of the same compound?
A: 24.5 mmHg

Q: And the “Intraocular Pressure, MEAN” value (untreated left eyes, Day 10, 5 mg/g (Group C))?
A: 24.6 mmHg

Q: What about the “Intraocular Pressure, MEAN” value (untreated left eyes, Day 10, 10 mg/g (Group B)) of the same compound?
A: 24.0 mmHg

Q: What about the “Intraocular Pressure, MEAN” value (untreated left eyes, Day 12, 1 mg/g (Group D)) of the same compound?
A: 22.2 mmHg

Q: What about the “Intraocular Pressure, MEAN” value (untreated left eyes, Day 12, 5 mg/g (Group C)) of the same compound?
A: 23.8 mmHg

Q: What about the “Intraocular Pressure, MEAN” value (untreated left eyes, Day 12, 10 mg/g (Group B)) of the same compound?
A: 23.8 mmHg

From patent US20120316199A1, “COMPOSITIONS AND METHODS FOR TREATING, CONTROLLING, REDUCING, OR AMELIORATING INFLAMMATORY PAIN” (priority 2011, published 2012)
